# Laboratory results as given in patent US9820951B2, “Pulmonary disease treatment and diagnosis based on Arhgef1” (NATIONAL JEWISH HEALTH, A NON-PROFIT ORGANIZATION, priority 2011, dated 2017).
# Tested on: MMP9
# Experiment: MMP9 production by human alveolar macrophages cultured on fibronectin (gelatin zymography)
# Assay type: cell-based
# Conditions: PTA2 1.25, 6.25 and 25 μM, dose-dependent
# From the text: FIG. 14. Human alveolar macrophages produce TXB2 when cultured on fibronectin and thromboxane receptor signaling is required for MMP9 production. A, TXB2 production measured in conditioned media from human macrophages cultured on fibronectin (closed bars) or plastic (open bars) at the indicated cellular concentrations. B, TXB2 measured in conditioned media from macrophages cultured at 0.125×10^6 cells/ml on either plastic (ctl) or FN from four individuals. The data represent the means±S.E. C, gelatin zymogram of conditioned media from cells cultured as indicated and in the presence of increasing doses of the thromboxane receptor antagonist PTA2 (at 1.25, 6.25, and 25 μM, respectively). Below the zymogram is quantitation of MMP9 activity by densitometric analysis.
# Tissue-culture 96-well plates (Costar high binding catalogue number 3590) were coated with 10 μg/ml of murine fibronectin (Molecular Innovations, Nori, Minn.; catalogue number MFBN) or human fibronectin (Molecular Innovations; catalogue number HFBN) in DPBS without Ca^2+ or Mg^2+ (Mediatech, Inc., Manassas, Va.) for 2 h at room temperature. […] PGE2 and TXB2 were measured in conditioned medium by ELISA according to the manufacturer's instructions (ElisaTech, Aurora, Colo.). […]
# For other human studies, we quantitated MMP9 by ELISA in conditioned medium (ELISA TECH, Aurora, Colo.). […]
smiles,measurement,value
"CCCCC[C@@H](O)/C=C/[C@H]1C[C@H]2C[C@@H]([C@@H]1C/C=C\CCCC(=O)O)C2(C)C (relative stereo) [PTXA2, (18-(1alpha,2beta(Z),3alpha(1E,3S*),5alpha))-7-(3-(3-Hydroxy-1-octenyl)-6,6-dimethylbicyclo(3.1.1)hept-2-yl)-5-heptenoic acid]",inhibition of MMP9 production,~90%
